Values joined by “and” are separate entries in the source; they are usually repeats but may differ in a detail not shown here. Equal entries are not always repeated.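 Exposure lasted 48 hours, with cells grown in 96-well plates and compounds tested at five concentrations. GI50 is the concentration that inhibits growth by half. At the TGI there is no net growth.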
What was measured:
Assay in all cases: DTP human tumour cell line panel, 48 h
IGROV1 ovarian = tested on: IGROV1 ovarian
SR leukemia = tested on: SR leukemia
K-562 leukemia = tested on: K-562 leukemia
CCRF-CEM leukemia = tested on: CCRF-CEM leukemia
SK-MEL-28 melanoma = tested on: SK-MEL-28 melanoma
KM12 colon = tested on: KM12 colon
LXFL 529 NSCLC = tested on: LXFL 529 NSCLC
SK-MEL-2 melanoma = tested on: SK-MEL-2 melanoma
SNB-78 CNS = tested on: SNB-78 CNS
NCI-H522 lung = tested on: NCI-H522 lung

SMILES: CN(C)CCNC(=O)c1c2ccccc2cc2ccccc12
- TGI (IGROV1 ovarian): > 100 µM
- TGI (SR leukemia): 26.3 µM
- TGI (K-562 leukemia): 67.1 µM
- TGI (CCRF-CEM leukemia): > 100 µM
- TGI (SK-MEL-28 melanoma): 64.4 µM
- TGI (KM12 colon): > 100 µM
- TGI (LXFL 529 NSCLC): 80.8 µM
- TGI (SK-MEL-2 melanoma): 36.8 µM
- TGI (SNB-78 CNS): > 100 µM

SMILES: Cc1cccc(C(C)C)c1NC(=O)CCl
- TGI (SR leukemia): > 100 µM
- TGI (K-562 leukemia): > 100 µM
- TGI (CCRF-CEM leukemia): > 100 µM
- TGI (SK-MEL-28 melanoma): > 100 µM
- TGI (KM12 colon): > 100 µM
- TGI (LXFL 529 NSCLC): > 100 µM
- TGI (SK-MEL-2 melanoma): > 100 µM
- TGI (NCI-H522 lung): 30 µM
- TGI (SNB-78 CNS): > 100 µM

SMILES: CCOC(OCC)C(CC)[Se]c1ccccc1 (stereo not given)
- TGI (IGROV1 ovarian): > 100 µM
- TGI (SR leukemia): 47.7 µM
- TGI (K-562 leukemia): > 100 µM
- TGI (CCRF-CEM leukemia): > 100 µM
- TGI (SK-MEL-28 melanoma): > 100 µM
- TGI (KM12 colon): > 100 µM
- TGI (LXFL 529 NSCLC): > 100 µM
- TGI (SK-MEL-2 melanoma): > 100 µM
- TGI (NCI-H522 lung): 46.2 µM
- TGI (SNB-78 CNS): > 100 µM

SMILES: CCOc1ccc(NCC2CC/C(=C\c3ccc(Cl)cc3)C2=O)cc1 (stereo not given)
- TGI (IGROV1 ovarian): > 50.6 µM
- TGI (SR leukemia): > 50.4 µM
- TGI (K-562 leukemia): 34.9 µM
- TGI (CCRF-CEM leukemia): 22.8 µM
- TGI (SK-MEL-28 melanoma): > 100 µM
- TGI (KM12 colon): > 44 µM
- TGI (LXFL 529 NSCLC): 25.8 µM
- TGI (SK-MEL-2 melanoma): 58.7 µM
- TGI (NCI-H522 lung): 13.9 µM
- TGI (SNB-78 CNS): > 100 µM

SMILES: COc1ccc(OC(C)C(=O)O)c2c1CCCC2=O (stereo not given)
- TGI (IGROV1 ovarian): > 100 µM
- TGI (SR leukemia): > 100 µM
- TGI (K-562 leukemia): > 100 µM
- TGI (CCRF-CEM leukemia): > 100 µM
- TGI (SK-MEL-28 melanoma): > 100 µM
- TGI (KM12 colon): > 100 µM
- TGI (LXFL 529 NSCLC): > 100 µM
- TGI (SK-MEL-2 melanoma): > 100 µM
- TGI (NCI-H522 lung): > 100 µM
- TGI (SNB-78 CNS): > 100 µM

SMILES: O=c1ccn(C2(CO)C=C(CO)C(O)C2O)c(=O)[nH]1 (stereo not given)
- TGI (IGROV1 ovarian): > 25.7 µM
- TGI (SR leukemia): > 25.7 µM
- TGI (K-562 leukemia): > 25.7 µM
- TGI (SK-MEL-28 melanoma): > 25.7 µM
- TGI (KM12 colon): > 25.7 µM
- TGI (LXFL 529 NSCLC): > 25.7 µM
- TGI (SK-MEL-2 melanoma): > 25.7 µM
- TGI (NCI-H522 lung): > 25.7 µM
- TGI (SNB-78 CNS): > 25.7 µM

SMILES: CC#CC#C/C=C1\C=CC2(OC=CC2OC(C)=O)O1 (stereo not given)
- TGI (IGROV1 ovarian): > 100 µM
- TGI (SR leukemia): 89.6 µM and > 94.5 µM
- TGI (K-562 leukemia): > 100 µM and 54.8 µM
- TGI (CCRF-CEM leukemia): 40.3 µM and 72.9 µM
- GI50 (SK-MEL-28 melanoma): 43.5 µM
- TGI (SK-MEL-28 melanoma): > 100 µM
- TGI (KM12 colon): 63.7 µM and 54.8 µM
- TGI (LXFL 529 NSCLC): 32.2 µM
- GI50 (SK-MEL-2 melanoma): 90.2 µM and 28.9 µM
- TGI (SK-MEL-2 melanoma): > 100 µM
- GI50 (NCI-H522 lung): 14.7 µM and 5.72 µM
- TGI (NCI-H522 lung): 39.2 µM and 11.1 µM
- TGI (SNB-78 CNS): 18.7 µM

SMILES: OCC(O)COc1c(Cl)cc(Cl)cc1Cl (stereo not given)
- TGI (IGROV1 ovarian): > 100 µM
- TGI (SR leukemia): > 100 µM
- TGI (K-562 leukemia): > 66.1 µM
- TGI (CCRF-CEM leukemia): > 61.9 µM
- TGI (SK-MEL-28 melanoma): > 100 µM
- TGI (KM12 colon): > 100 µM
- TGI (LXFL 529 NSCLC): > 100 µM
- TGI (SK-MEL-2 melanoma): > 100 µM
- TGI (NCI-H522 lung): > 100 µM
- TGI (SNB-78 CNS): > 100 µM

SMILES: CN(C(=O)C12C3C4C1C1C2C3C41C(O)C(C)(C)C)C(C)(C)C (stereo not given)
- TGI (IGROV1 ovarian): > 100 µM
- TGI (K-562 leukemia): > 100 µM
- TGI (CCRF-CEM leukemia): > 100 µM
- TGI (SK-MEL-28 melanoma): > 100 µM
- TGI (KM12 colon): > 100 µM
- TGI (LXFL 529 NSCLC): > 100 µM
- TGI (SK-MEL-2 melanoma): > 100 µM
- TGI (NCI-H522 lung): > 100 µM
- TGI (SNB-78 CNS): > 100 µM

SMILES: CC(O)C(NC(=O)c1ccccc1)C(=O)N(Cc1ccccc1)Cc1ccccc1 (stereo not given)
- TGI (IGROV1 ovarian): > 100 µM
- TGI (K-562 leukemia): > 100 µM
- TGI (CCRF-CEM leukemia): > 100 µM
- TGI (SK-MEL-28 melanoma): > 100 µM
- TGI (KM12 colon): > 100 µM
- TGI (LXFL 529 NSCLC): > 100 µM
- TGI (SK-MEL-2 melanoma): > 100 µM
- TGI (NCI-H522 lung): 26.5 µM
- TGI (SNB-78 CNS): > 100 µM

SMILES: O=C1CCNC(=O)NC1
- TGI (IGROV1 ovarian): > 100 µM
- TGI (SR leukemia): > 100 µM
- TGI (K-562 leukemia): > 100 µM
- TGI (CCRF-CEM leukemia): > 100 µM
- TGI (SK-MEL-28 melanoma): > 100 µM
- TGI (KM12 colon): > 100 µM
- TGI (LXFL 529 NSCLC): > 100 µM
- TGI (SK-MEL-2 melanoma): > 100 µM
- TGI (NCI-H522 lung): > 100 µM
- TGI (SNB-78 CNS): > 100 µM

SMILES: N#Cc1cc([N+](=O)[O-])ccc1NC(=O)C(=O)C(C(=O)c1ccc2ccccc2c1)C1OCc2ccccc21 (stereo not given)
- TGI (IGROV1 ovarian): 61.6 µM
- TGI (SR leukemia): 16.9 µM
- TGI (K-562 leukemia): 65.2 µM
- TGI (CCRF-CEM leukemia): 39.2 µM
- TGI (SK-MEL-28 melanoma): 21.4 µM
- TGI (KM12 colon): 30.4 µM
- TGI (LXFL 529 NSCLC): 13.7 µM
- TGI (SK-MEL-2 melanoma): 16.2 µM
- TGI (NCI-H522 lung): 13.8 µM
- TGI (SNB-78 CNS): 35.2 µM

SMILES: c1ccc2c(c1)Sc1ccccc1N2C1CN2CCC1CC2 (stereo not given)
- TGI (IGROV1 ovarian): 42.3 µM
- TGI (K-562 leukemia): 29.5 µM
- TGI (CCRF-CEM leukemia): 33.9 µM
- TGI (SK-MEL-28 melanoma): 32.1 µM
- TGI (KM12 colon): 33.9 µM
- TGI (LXFL 529 NSCLC): 30.6 µM
- TGI (SK-MEL-2 melanoma): 16.8 µM
- TGI (NCI-H522 lung): 38.9 µM
- TGI (SNB-78 CNS): 30 µM

SMILES: CC(=O)OCCOCNC(=S)N/N=C(\C)c1cccs1
- TGI (IGROV1 ovarian): > 100 µM
- TGI (SR leukemia): > 100 µM
- TGI (K-562 leukemia): > 100 µM
- TGI (CCRF-CEM leukemia): > 100 µM
- TGI (SK-MEL-28 melanoma): > 100 µM
- TGI (KM12 colon): > 100 µM
- TGI (LXFL 529 NSCLC): > 100 µM
- TGI (SK-MEL-2 melanoma): > 100 µM
- TGI (NCI-H522 lung): > 100 µM
- TGI (SNB-78 CNS): > 100 µM

SMILES: CC(C)CN1CC(C)C(=O)NC1=O (stereo not given)
- TGI (SR leukemia): > 100 µM
- TGI (K-562 leukemia): > 100 µM
- TGI (CCRF-CEM leukemia): > 100 µM
- TGI (SK-MEL-28 melanoma): > 100 µM
- TGI (KM12 colon): > 100 µM
- TGI (LXFL 529 NSCLC): > 100 µM
- TGI (SK-MEL-2 melanoma): > 100 µM
- TGI (NCI-H522 lung): > 100 µM
- TGI (SNB-78 CNS): > 100 µM

SMILES: O=C1C(Br)=C(Br)C(=O)c2ccccc21
- GI50 (IGROV1 ovarian): 16.9 µM and 6.06 µM
- TGI (IGROV1 ovarian): 45.5 µM and 17.4 µM
- TGI (SR leukemia): 9.54 µM
- TGI (K-562 leukemia): > 100 µM
- GI50 (CCRF-CEM leukemia): 9.85 µM and 2.25 µM
- GI50 (SK-MEL-28 melanoma): 18.4 µM and 4.98 µM
- TGI (SK-MEL-28 melanoma): 32.8 µM and 15.6 µM
- TGI (KM12 colon): 36.9 µM and 33.3 µM
- GI50 (LXFL 529 NSCLC): 19.2 µM and 5.82 µM
- TGI (LXFL 529 NSCLC): 34 µM and 11.7 µM
- TGI (SK-MEL-2 melanoma): 36.2 µM and 29 µM
- GI50 (NCI-H522 lung): 16.3 µM and 3.77 µM
- TGI (NCI-H522 lung): 29.9 µM and 15.5 µM
- GI50 (SNB-78 CNS): 26.5 µM and 7.52 µM
- TGI (SNB-78 CNS): 48.9 µM and 18.4 µM

SMILES: O=C1/C(=C/c2ccc(Cl)cc2)CCC1CN1CCOCC1 (stereo not given)
- TGI (IGROV1 ovarian): 10.5 µM
- TGI (SR leukemia): 5.29 µM
- TGI (K-562 leukemia): 8.06 µM
- TGI (CCRF-CEM leukemia): 6.84 µM
- TGI (SK-MEL-28 melanoma): 21.5 µM
- TGI (KM12 colon): 10.4 µM
- TGI (LXFL 529 NSCLC): 6.88 µM
- TGI (SK-MEL-2 melanoma): 33.8 µM
- TGI (NCI-H522 lung): 5.15 µM
- TGI (SNB-78 CNS): 48.9 µM

SMILES: COC1C(CO)OC(n2c3c(Cl)cccc3c3c4c(c5c6cccc(Cl)c6[nH]c5c32)C(=O)NC4=O)C(O)C1O (stereo not given)
- TGI (IGROV1 ovarian): 7.76 µM
- TGI (K-562 leukemia): > 100 µM
- TGI (CCRF-CEM leukemia): > 100 µM
- TGI (SK-MEL-28 melanoma): > 73.5 µM
- TGI (KM12 colon): > 58.6 µM
- TGI (LXFL 529 NSCLC): > 100 µM
- TGI (SK-MEL-2 melanoma): > 26.3 µM
- TGI (NCI-H522 lung): 10.5 µM
- TGI (SNB-78 CNS): > 100 µM
